Experiments:
[1] = system: hepatocellular carcinoma (HepG2); experiment: In vitro anti-proliferative MTT assay, HepG2; details: Homo sapiens, HepG2, 24 h, read-out: IC50 HepG2
Method: (§6) This test was carried out on three different human cancer cell lines: MCF-7, HCT116, and HepG2 using the MTT method [66].
(§7) This test was carried out on three different human cancer cell lines: MCF-7, HCT116, and HepG2, We performed this colorimetric experiment with quantitative assessment of anticancer activity in accordance with the MTT method [1] The assay is based primarily on a biochemical reaction in which mitochondrial succinate dehydrogenase transforms yellow tetrazolium bromide (MTT) to a purple formazan derivative in live cells.
(§8) with 10% foetal bovine serum in general. In a 5 percent CO2 incubator at 37 °C, penicillin (100 units/mL) and streptomycin (100g/mL) were introduced. The cells were seeded at a density of 1.0x10^4 cells/well in a 96-well plate at 37 C for 48 hours under 5% CO2. […] The cells were given varying concentrations of the novel compounds and cultured for 24 hours. Then we add 20 l of MTT in a 5 mg/ml solution and let it sit for 4 hours.
(§9) 100 µl of DMSO was applied to each well to dissolve the purple formazan produced.
(§10) curve for each conc. using Graphpad Prism software (San Diego, CA. USA). The data presented are the mean of at least three separate experiments.
(§11) The IC50 of the selected derivatives were determined against VEGFR-2 kinase with enzyme linked immunosorbent assay (ELISA). We used a human VEGFR-2 ELISA kit. VEGFR-2 specific antibody was seeded on a 96 well microplate and 100 μL of solution of the standard or the tested compound was added. After incubation for 2.5 h. at room temperature and washing, 100 μL of prepared biotin antibody was added. Incubation of the plates for 1 h at room temperature and then washing were carried out before addition of streptavidin solution (100 μL). The mixture was incubated for 1h at room temperature and then washed. After that, 100 μL of tetramethybenzidine (TMB) substrate solution was added before incubation for half an hour at room temperature.
(§12) Finally, 50 μL of the stop solution was added immediately before the reading at 450 nm.
(§13) Percent inhibition was calculated by the comparison of compounds treated to control

VEGFR-2 kinase = target: T1, VEGFR-2 kinase (Homo sapiens, UniProt P35968); experiment: In vitro VEGFR-2 kinase inhibitory assay (ELISA kit); format: biochemical; details: human VEGFR-2 ELISA kit; median of three experiments
T1 construct: purchased

[2] = system: colorectal carcinoma (HCT116); experiment: In vitro anti-proliferative MTT assay, HCT116; details: Homo sapiens, HCT-116, 24 h, read-out: IC50 HCT116
Method: as §6, §7, §8, §9, §10, §11, §12, §13

breast cancer (MCF-7) = experiment: In vitro anti-proliferative MTT assay, MCF-7; details: Homo sapiens, MCF7, 24 h, read-out: IC50 MCF-7
Method: as §6, §7, §8, §9, §10, §11, §12, §13

HepG2 cells = experiment: HepG2 cell cycle analysis (PI flow cytometry); format: cell-based, human; details: 2.43 μM of compound
Method: The most promising candidate, compound 8d, was further evaluated by analyzing its effect on cycle phases of the HepG2 cells. From the results presented in Table 3, it can be noticed that a large percentage (70.23%) of cells treated with 8d was accumulated at the pre-G1 phase compared to the 2.70% reported for control cells. This clearly indicates the ability of compound 8d to inhibit HepG2 cell proliferation efficiently at the pre-G1 phase (Figure 5).
HepG2 Cell Cycle Analysis was performed for compound 8d according to the methodology reported by Wang et al.. The Supplementary data provides further detailed information about the study. […]
(§1) HepG2 cells were cultured according to the methodology described by Wang et al. The cells were planted and cultured for 24 h in six-well plates. Each well had 2 × 10^5 cells in it. Then 10% fetal bovine serum (FBS) was added, and the cells were incubated at 37 °C with 5% CO2.
The medium was then changed. DMSO (1% v/v) containing 2.43 μM of compound 8d was substituted. Following that, the cells were rinsed in cold phosphate buffered saline. (PBS), then fixed in 70% ethyl alcohol, washed in PBS, and […]. After that, the DNA fluorochrome propidium iodide (PI) was maintained at […] for 1 5 minutes at 37 °C. A FACS Caliber flow cytometer was used to analyze the samples. […]

TNF-α = TNF-α level in HepG2 cells by qRT-PCR; format: cell-based; details: Homo sapiens, 2.43 µM for 24 h
Method: (§2) The inhibition of these mediators caused apoptosis of tumor cells. Therefore, further investigation was conducted to see how compound 8 affect these cytokines (TNF-α and IL-6). Compound 8d was added to HepG2 cells at a concentration of 2.43 µM for 24 h, then the levels of TNF-α and IL-6 were measured using the qRT-PCR method.
(§3) The effects of 8d on TNF-α and IL-6 were determined using the qRT-PCR technique. The Supplementary data provides further detailed information about the study. […]
as §1
(§4) The medium was then changed. DMSO (1% v/v) containing 2.43 μM of compound 8d was substituted. Following that, the cells were rinsed in cold phosphate buffered saline. […]
(§5) 1.5. Quantitative Real Time Reverse-Transcriptase PCR (qRT-PCR) technique The effects of compound 8d on the expression of TNF-α and IL-6 were determined using qRT-PCR technique. The quantity of immunomodulatory proteins (TNF-α and IL-6) in control and compound 8d (at the IC50 concentration)-treated HepG2 cells was assessed by qRT-PCR (reference). […]

IL-6 = IL-6 level in HepG2 cells by qRT-PCR; format: cell-based; details: Homo sapiens, 2.43 µM for 24 h
Method: as §2, §3, §1, §4, §5

T1 sequence (P35968 20-1356): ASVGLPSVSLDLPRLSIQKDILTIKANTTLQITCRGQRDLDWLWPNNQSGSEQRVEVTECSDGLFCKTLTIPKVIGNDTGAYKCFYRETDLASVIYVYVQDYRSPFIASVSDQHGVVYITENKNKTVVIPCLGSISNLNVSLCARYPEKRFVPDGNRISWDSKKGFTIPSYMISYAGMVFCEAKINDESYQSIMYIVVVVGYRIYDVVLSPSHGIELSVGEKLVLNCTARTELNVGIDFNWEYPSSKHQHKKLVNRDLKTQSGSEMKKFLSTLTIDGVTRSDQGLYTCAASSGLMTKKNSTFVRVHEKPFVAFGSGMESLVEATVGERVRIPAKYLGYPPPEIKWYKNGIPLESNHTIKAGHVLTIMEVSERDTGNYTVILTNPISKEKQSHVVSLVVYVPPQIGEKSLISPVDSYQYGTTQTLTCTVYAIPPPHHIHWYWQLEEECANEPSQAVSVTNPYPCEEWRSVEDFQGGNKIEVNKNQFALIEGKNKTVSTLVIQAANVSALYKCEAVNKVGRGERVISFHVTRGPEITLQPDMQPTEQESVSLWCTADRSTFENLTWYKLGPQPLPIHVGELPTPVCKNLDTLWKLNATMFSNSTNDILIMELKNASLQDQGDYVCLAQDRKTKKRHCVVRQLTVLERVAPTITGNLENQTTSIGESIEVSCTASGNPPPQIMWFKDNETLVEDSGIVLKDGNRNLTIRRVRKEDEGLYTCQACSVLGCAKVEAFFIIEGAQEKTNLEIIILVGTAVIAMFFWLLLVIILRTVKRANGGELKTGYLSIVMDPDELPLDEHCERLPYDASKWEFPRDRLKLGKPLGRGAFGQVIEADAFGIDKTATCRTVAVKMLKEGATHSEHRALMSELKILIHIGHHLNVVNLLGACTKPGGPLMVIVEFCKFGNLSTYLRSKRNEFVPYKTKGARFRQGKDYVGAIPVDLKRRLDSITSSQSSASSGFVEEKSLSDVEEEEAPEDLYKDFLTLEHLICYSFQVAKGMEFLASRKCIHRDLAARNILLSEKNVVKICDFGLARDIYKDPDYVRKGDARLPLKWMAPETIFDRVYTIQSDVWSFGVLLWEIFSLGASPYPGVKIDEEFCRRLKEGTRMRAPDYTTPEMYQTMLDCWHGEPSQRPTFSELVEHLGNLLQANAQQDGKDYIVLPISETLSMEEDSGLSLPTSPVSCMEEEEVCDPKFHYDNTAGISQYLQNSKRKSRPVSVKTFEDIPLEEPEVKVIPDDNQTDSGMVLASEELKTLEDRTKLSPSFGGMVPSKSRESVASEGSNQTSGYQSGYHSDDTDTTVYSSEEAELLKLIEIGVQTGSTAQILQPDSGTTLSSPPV

Row | SMILES | IC50 [1] | IC50 (VEGFR-2 kinase) | IC50 [2] | IC50 (breast cancer (MCF-7)) | %Pre-G1 (HepG2 cells; control 2.70) | %G2-M (HepG2 cells; control 19.31) | %G0–G1 (HepG2 cells; control 39.81) | %S (HepG2 cells; control 40.88) | inhibition at 2.43 µM (TNF-α) | inhibition at 2.43 µM (IL-6)
1 | Cc1ccc(NC(=O)c2ccc(NC(=O)CSc3nc4ccccc4o3)cc2)cc1 [Compound 8a, 4-(2-(Benzo[d]oxazol-2-ylthio)acetamido)-N-(p-tolyl)benzamide] | 10.4 ± 0.98 µM | 0.0579 µM | 10.1 ± 0.95 µM | 9.49 ± 0.75 µM |  |  |  |  |  | 
2 | Cc1ccc(NC(=O)c2ccc(NC(=O)CSc3nc4cc(Cl)ccc4o3)cc2)cc1 [Compound 8b, 4-(2-((5-Chlorobenzo[d]oxazol-2-yl)thio)acetamido)-N-(p-tolyl)benzamide] | 10.4 ± 0.92 µM |  | 11.6 ± 0.91 µM | 12.4 ± 0.92 µM |  |  |  |  |  | 
3 | Cc1ccc(NC(=O)c2ccc(NC(=O)CSc3nc4cc(C)ccc4o3)cc2)cc1 [Compound 8c, 4-(2-((5-Methylbenzo[d]oxazol-2-yl)thio)acetamido)-N-(p-tolyl)benzamide] | 8.16 ± 0.77 µM | 1.14 µM | 6.12 ± 0.55 µM | 9.15 ± 0.85 µM |  |  |  |  |  | 
4 | O=C(CSc1nc2ccccc2o1)Nc1ccc(C(=O)Nc2ccc([N+](=O)[O-])cc2)cc1 [Compound 8d, 4-(2-(Benzo[d]oxazol-2-ylthio)acetamido)-N-(4-nitrophenyl)benzamide] | 2.43 ± 0.16 µM |  | 2.79 ± 0.19 µM | 3.43 ± 0.15 µM | 70.23% | 19.1% | 31.1% | 49.8% | 90.5% | 92.2%
5 | O=C(CSc1nc2cc(Cl)ccc2o1)Nc1ccc(C(=O)Nc2ccc([N+](=O)[O-])cc2)cc1 [Compound 8e, 4-(2-((5-Chlorobenzo[d]oxazol-2-yl)thio)acetamido)-N-(4-nitrophenyl) benzamide] | 4.51 ± 0.35 µM | 0.0741 µM | 3.29 ± 0.26 µM | 5.69 ± 0.44 µM |  |  |  |  |  | 
6 | Cc1ccc2oc(SCC(=O)Nc3ccc(C(=O)Nc4ccc([N+](=O)[O-])cc4)cc3)nc2c1 [Compound 8f, 4-(2-((5-Methylbenzo[d]oxazol-2-yl)thio)acetamido)-N-(4-nitrophenyl) benzamide] | 4.41 ± 0.35 µM | 0.204 µM | 4 ± 0.33 µM | 4.97 ± 0.32 µM |  |  |  |  |  | 
7 | CC(=O)c1ccc(NC(=O)c2ccc(NC(=O)CSc3nc4cc(Cl)ccc4o3)cc2)cc1 [Compound 8g, N-(4-Acetylphenyl)-4-(2-((5-chlorobenzo[d]oxazol-2-yl)thio)acetamido) benzamide] | 8.44 ± 0.65 µM |  | 10.4 ± 0.92 µM | 12.5 ± 1.1 µM |  |  |  |  |  | 
8 | CC(=O)c1ccc(NC(=O)c2ccc(NC(=O)CSc3nc4cc(C)ccc4o3)cc2)cc1 [Compound 8h, N-(4-Acetylphenyl)-4-(2-((5-methylbenzo[d]oxazol-2-yl)thio)acetamido) benzamide] | 2.76 ± 0.18 µM | 0.114 µM | 2.94 ± 0.19 µM | 3.53 ± 0.28 µM |  |  |  |  |  | 
9 | O=C(CSc1nc2ccccc2o1)Nc1ccc(C(=O)NCc2ccccc2)cc1 [Compound 8i, 4-(2-(Benzo[d]oxazol-2-ylthio)acetamido)-N-benzylbenzamide] | 5.92 ± 0.47 µM | 0.317 µM | 8.53 ± 0.77 µM | 10 ± 0.95 µM |  |  |  |  |  | 
10 | O=C(CSc1nc2cc(Cl)ccc2o1)Nc1ccc(C(=O)NCc2ccccc2)cc1 [Compound 8j, N-Benzyl-4-(2-((5-chlorobenzo[d]oxazol-2-yl)thio)acetamido)benzamide] | 14.2 ± 1.1 µM |  | 18.2 ± 1.5 µM | 16.9 ± 1.5 µM |  |  |  |  |  | 
11 | Cc1ccc2oc(SCC(=O)Nc3ccc(C(=O)NCc4ccccc4)cc3)nc2c1 [Compound 8k, N-Benzyl-4-(2-((5-methylbenzo[d]oxazol-2-yl)thio)acetamido)benzamide] | 10.1 ± 0.93 µM | 0.653 µM | 8.09 ± 0.71 µM | 8.37 ± 0.77 µM |  |  |  |  |  | 
12 | O=C(CSc1nc2ccccc2o1)Nc1ccc(C(=O)NCCc2ccccc2)cc1 [Compound 8l, 4-(2-(Benzo[d]oxazol-2-ylthio)acetamido)-N-phenethylbenzamide] | 11.2 ± 0.95 µM |  | 14.2 ± 1.2 µM | 12.5 ± 1.05 µM |  |  |  |  |  | 
13 | Cc1ccc2oc(SCC(=O)Nc3ccc(C(=O)NCCc4ccccc4)cc3)nc2c1 [Compound 8m, 4-(2-((5-Methylbenzo[d]oxazol-2-yl)thio)acetamido)-N-phenethylbenzamide] | 28.6 ± 2.1 µM |  | 16.4 ± 1.3 µM | 25.8 ± 2.1 µM |  |  |  |  |  | 
14 | C[C@@H]1C[C@H]2[C@@H]3CCC4=CC(=O)C=C[C@]4(C)[C@@]3(F)[C@@H](O)C[C@]2(C)[C@@]1(O)C(=O)CO [Dexamethasone, reference compound] |  |  |  |  |  |  |  |  | 82.5% | 93.2%
15 | CNC(=O)c1cc(Oc2ccc(NC(=O)Nc3ccc(Cl)c(C(F)(F)F)c3)cc2)ccn1 [Sorafenib, reference compound] | 3.4 ± 0.25 µM |  | 5.3 ± 0.44 µM |  |  |  |  |  |  | 
